Results on 3 compounds are retold here after ChEMBL document CHEMBL5523698, “Design, synthesis, and biological evaluation of phenylcyclopropylamine-entinostat conjugates that selectively target cancer cells” (Bioorg Med Chem, 2024).

Structures are written as SMILES. Activity calls are given as the source filed them. No cut-off for these calls is given here.

Series [1] addresses T1, Lysine-specific histone demethylase 1A (Homo sapiens, UniProt O60341).
Description: Inhibition of human recombinant LSD1 using H3K4me2 peptide substrate preincubated for 15 mins followed by substrate addition and measured after 30 mins by fluorescence based assay
Series [2] concerns the target T1, Lysine-specific histone demethylase 1A. In words: Drug metabolism assessed as LSD1 (unknown origin) mediated entinostat release. Format: ADME.
A further series in a line: in vitro. As to conditions: human, PrEC cells.
The target of series [3] is T2, Histone deacetylase (Homo sapiens) (UniProt Q13547+O15379+Q9UBN7+Q92769+Q9UQL6+Q8WUI4+Q9BY41+Q96DB2+P56524+Q9UKV0+Q969S8). The series is described as follows: Inhibition of HDAC in human PC-3 cells assessed as fold increase in acetylated H3K9 to H3 ratio at 0.1 uM incubated for 24 hrs by Western blotting analysis (reference value: […]). Format: cell-based.
The next series relates to PC-3. In words: cells. As to conditions: Homo sapiens, PC-3, 72 h.
The target of series [4] is T1, Lysine-specific histone demethylase 1A. In words: Inhibition of LSD1 in human PC-3 cells assessed as fold increase in H3K4me2 to H3 ratio at 0.3 uM incubated for 24 hrs by Western blotting analysis (reference value: 1). It counts as cell-based.
For series [5] the target is unchanged. The series is described as follows: Potency index, ratio of PCPA IC50 to test compound IC50 for inhibition of human recombinant LSD1.
Series [6] shares this target. In words: Inhibition of LSD1 in human PC-3 cells assessed as increase in H3K4me2 level incubated for 24 hrs by Western blotting analysis. Format: cell-based. As to conditions: dose 0.1-1 µM.
For series [7] the target is unchanged. The series is described as follows: Inhibition of LSD1 in human PC-3 cells assessed as fold increase in H3K4me2 to H3 ratio at 0.1 uM incubated for 24 hrs by Western blotting analysis (reference value: 1). It counts as cell-based.
A further series concerns LN-18. The series is described as follows: cells. The settings on record: Homo sapiens, LN-18, 72 h.
Series [8] deals with T2, Histone deacetylase (Homo sapiens). In words: Inhibition of HDAC in human PC-3 cells assessed as H3K9 acetylation at 0.1 to 1 uM incubated for 24 hrs by Western blotting analysis. Format: cell-based. As to conditions: dose 0.1-1 µM.
Series [9] deals with T1, Lysine-specific histone demethylase 1A. In words: Inhibition of LSD1 in human PC-3 cells assessed as fold increase in H3K4me2 to H3 ratio at 1 uM incubated for 24 hrs by Western blotting analysis (reference value: 1). It counts as cell-based.
The next series deals with HL-60. In words: cells. The settings on record: Homo sapiens, HL-60, 72 h.
The target of series [10] is T1, Lysine-specific histone demethylase 1A. In words: Drug metabolism assessed as LSD1 (unknown origin) mediated entinostat release incubated for 24 hrs by HPLC analysis. It counts as ADME.
The target of series [11] is T2, Histone deacetylase (Homo sapiens). In words: Inhibition of HDAC in human PC-3 cells assessed as fold increase in acetylated H3K9 to H3 ratio at 1 uM incubated for 24 hrs by Western blotting analysis (reference value: […]). It counts as cell-based.
Series [12] shares this target. The series is described as follows: Inhibition of HDAC in human PC-3 cells assessed as fold increase in acetylated H3K9 to H3 ratio at 0.3 uM incubated for 24 hrs by Western blotting analysis (reference value: 1). Format: cell-based.

Description for HL-60: Antiproliferative activity against human HL-60 cells incubated for 3 days by alamar blue assay
Description for LN-18: Antiproliferative activity against human LN-18 cells incubated for 3 days by alamar blue assay
Description for PC-3: Antiproliferative activity against human PC-3 cells incubated for 3 days by alamar blue assay
Description for in vitro: Cytotoxicity against human PrEC cells incubated for 3 days by alamar blue assay

Take `CN(CCN(C)C1CC1c1ccccc1)C(=O)Nc1ccccc1NC(=O)c1ccc(CNC(=O)OCc2cccnc2)cc1` (stereo unspecified): the IC50 in [1] is 50300 nM. The Drug metabolism result in [2] is reported as “Metabolite_Notdetected”.
In the case of `CN(CCN(C)C1CC1c1ccccc1)C(=O)Oc1ccc(COC(=O)Nc2ccccc2NC(=O)c2ccc(CNC(=O)OCc3cccnc3)cc2)cc1` (stereo unspecified), in “in vitro”, the GI50 at 72 h is > 100000 nM. Further, the fold change (FC) in series [3] turned out to be 1.48; in [4] it was 1.49; in [7] it was 1.18; in series [9], 1.58; in series [11], 2.01; in series [12], 1.77. Further, the GI50 with PC-3 was determined as 1180 nM; in the series on LN-18 it was 5620 nM; in the series with HL-60 it was 4490 nM. In addition, in series [5], the Ratio IC50 came out at 40. The inhibition entry in [6] is “Dose-Dependent Effect”. Moreover, the inhibition result in series [8] is “Active”. Besides, the midpoint of inhibition in [1], the IC50, lay at 626 nM. Further, the Drug metabolism result in [10] was “Metabolite_Detected”.
In the series “in vitro”, `Nc1ccccc1NC(=O)c1ccc(CNC(=O)OCc2cccnc2)cc1` [ENTINOSTAT] had a GI50 at 72 h of 2230 nM. In addition, the GI50 with PC-3 is 87 nM; in the series on LN-18, 917 nM; with HL-60, 214 nM.
